The source of these data is patent publication US20230235378A1, “LZHEIMER'S DISEASE-SPECIFIC ALTERATIONS OF PROTEIN KINASE C EPSILON (PKC-EPSILON PROTEIN LEVELS” (WEST VIRGINIA UNIVERSITY BOARD OF GOVERNORS ON BEHALF OF …, priority 2010, published 2023).

The target in the test is T1, PKCγ (Homo sapiens, UniProt P05129).
T1 construct: purchased Calbiochem
The test is described as follows: PKC isozyme specificity: PKCγ. The note with it: 50-100 μM; data not shown. It counts as biochemical. How it is done: Protein Kinase C Assay. Rat hippocampal cells were cultured and scraped in 0.2 ml homogenization buffer (20 mM Tris-HCl, pH 7.4, 50 mM NaF, 1 μg/ml leupeptin, and 0.1 mM PMSF) and homogenized by sonication in a Marsonix micro-probe sonicator (5 sec, 10 W). To measure PKC, 10 μl of cell homogenate or purified PKC isozyme (purchased from Calbiochem) was incubated for 15 min at 37° C. in the presence of 10 μM histones, 4.89 mM CaCl2, 1.2 μg/μl phosphatidyl-L-serine, 0.18 μg/μl 1,2-dioctanoyl-sn-glycerol, 10 mM MgCl2, 20 mM HEPES (pH 7.4), 0.8 mM EDTA, 4 mM EGTA, 4% glycerol, 8 μg/ml aprotinin, 8 μg/ml leupeptin, and 2 mM benzamidine. 0.5 μCi [γ-32P]ATP was added and 32P-phosphoprotein formation was measured by adsorption onto phosphocellulose as described previously. Nelson and Alkon, J. Neurochemistry. 1995; 65: 2350-57. For measurements of activation by BR-101 (DCP-LA) and similar compounds, PKC activity was measured in the absence of diacylglycerol and phosphatidylserine, as described by Kanno et al., and PKC δ, ε, η, and were measured in the absence of added EGTA and CaCl2, as described by Kanno et al., J. Lipid Res. 2006; 47: 1146-50. […]
To determine their PKC isozyme specificity, the new compounds were preincubated with purified PKC for five minutes and the PKC activity was measured radiometrically.

The structures appear in SMILES notation.

In the case of `CCCCCC1CC1CC1CC1CCCCCCCC(=O)O` (stereo not shown) [BR-101, 8-[2-(2-pentyl-cyclopropylmethyl)-cyclopropyl]-octanoic acid], the “effect on PKCγ at higher concentrations” value is “activated”.
